Test results published in patent US20170334899A1, “AMINO-SUBSTITUTED ISOTHIAZOLES” (Bayer Pharma Aktiengesellschaft, priority 2014, published 2017).
“And” between values parts separate entries of the source, which are not always exact repeats. Identical values can stand only once.

How the values were obtained:
CDK2/CycE = biological target: T1, CDK2/CycE (Homo sapiens, UniProt P24941); experiment: CDK2/CycE kinase assay (TR-FRET); type: biochemical; conditions: avg, read-out: CDK2 avg (IC50 [mol/l])
T1 construct: GST; purchased ProQinase GmbH (Freiburg, Germany); host or cells: insect cells (Sf9)
Summary of the method: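 Read-out is a TR-FRET 665/620 nm emission ratio from EDTA-stopped reactions detected with anti-pRB(pSer807/pSer811), Eu-labelled anti-mouse IgG and streptavidin-XL665, scaled between no-enzyme and uninhibited wells. Reaction: Sf9-expressed GST-CDK2/GST-CycE, 15 min compound preincubation, 10 μM ATP, 0.75 μM biotin-peptide, 25 min, 22° C., pH 8.0 Tris buffer.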

[1] = biological target: T2, catalytic domain of human Bub1 (amino acids 704-1085) (Homo sapiens, UniProt O43683); experiment: Bub1 kinase assay (TR-FRET); type: biochemical; conditions: 10 μM ATP, avg, read-out: Bub1 avg (IC50 [mol/l])
T2 construct: catalytic domain of human Bub1 (amino acids 704-1085); His6 (N); made in house; host or cells: insect cells (Hi5)
T2 sequence (O43683 704-1085): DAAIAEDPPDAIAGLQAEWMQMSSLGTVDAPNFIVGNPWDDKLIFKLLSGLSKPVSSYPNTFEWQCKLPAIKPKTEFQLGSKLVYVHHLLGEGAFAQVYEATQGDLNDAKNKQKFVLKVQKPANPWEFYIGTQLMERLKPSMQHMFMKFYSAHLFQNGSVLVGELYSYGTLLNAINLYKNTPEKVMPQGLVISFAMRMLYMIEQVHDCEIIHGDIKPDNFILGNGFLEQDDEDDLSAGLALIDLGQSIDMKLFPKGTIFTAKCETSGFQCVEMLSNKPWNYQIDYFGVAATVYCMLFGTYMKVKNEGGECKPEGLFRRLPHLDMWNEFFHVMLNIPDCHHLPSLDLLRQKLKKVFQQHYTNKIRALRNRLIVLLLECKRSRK
Summary of the method: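 Readout is the 665/620 nm TR-FRET ratio from anti-phosphoserine antibody, Eu-labelled anti-mouse IgG and streptavidin-XL665, scaled between no-enzyme and uninhibited controls. Reaction: 1 μM biotinylated peptide, 10 μM ATP, 60 min, 22 °C, after 15 min compound preincubation with His6-Bub1 (704-1085, insect-expressed, ~200 ng/ml).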

Row | IC50 (CDK2/CycE) | IC50 [1] | Compound
1 | > 20 µM | > 20 µM | Cc1nsc(Nc2cncc(C(F)(F)F)n2)c1C(=O)Nc1ccc(F)c(OC2CCN(CCF)CC2)c1 [Example 269, N-(4-fluoro-3-{[1-(2-fluoroethyl)piperidin-4-yl]oxy}phenyl)-3-methyl-5-{[6-(trifluoromethyl)pyrazin-2-yl]amino}-1,2-thiazole-4-carboxamide]
2 | ≥ 20 µM | ≥ 20 µM | Cc1nsc(Nc2cnc(C(F)(F)F)cn2)c1C(=O)Nc1ccc(F)c(OCC2CCN(CCF)CC2)c1 [Example 309, N-(4-fluoro-3-{[1-(2-fluoroethyl)piperidin-4-yl]methoxy}phenyl)-3-methyl-5-{[5-(trifluoromethyl)pyrazin-2-yl]amino}-1,2-thiazole-4-carboxamide]
3 | > 20 µM | > 20 µM | Cc1nsc(Nc2cnc(C(F)(F)F)cn2)c1C(=O)Nc1ccc(C(=O)NC2CN(CC(F)F)C2)cc1 [Example 271, N-(4-{[1-(2,2-difluoroethyl)azetidin-3-yl]carbamoyl}phenyl)-3-methyl-5-{[5-(trifluoromethyl)pyrazin-2-yl]amino}-1,2-thiazole-4-carboxamide]
4 | > 20 µM | 1.2 µM | Cc1nsc(Nc2cnc3ccccc3n2)c1C(=O)Nc1cccc(C(=O)NC2CC2)c1 [Example 249, N-[3-(cyclopropylcarbamoyl)phenyl]-3-methyl-5-(quinoxalin-2-ylamino)-1,2-thiazole-4-carboxamide]
5 | > 20 µM | > 20 µM and 18 µM | Cc1nsc(Nc2cnc(C(F)(F)F)cn2)c1C(=O)Nc1ccc(OCCO)nc1 [Example 277, N-[6-(2-hydroxyethoxy)pyridin-3-yl]-3-methyl-5-{[5-(trifluoromethyl)pyrazin-2-yl]amino}-1,2-thiazole-4-carboxamide]
6 | > 20 µM | > 20 µM | Cc1nsc(Nc2cnc(C(F)(F)F)cn2)c1C(=O)Nc1ccc(OC2CCN(CC(F)F)C2)nc1 (stereo not shown) [Example 296, N-(6-{[1-(2,2-difluoroethyl)pyrrolidin-3-yl]oxy}pyridin-3-yl)-3-methyl-5-{[5-(trifluoromethyl)pyrazin-2-yl]amino}-1,2-thiazole-4-carboxamide]
7 | > 20 µM | 0.6 µM | CCNC(=O)c1cccc(NC(=O)c2c(C)nsc2Nc2cnc3ccccc3n2)c1 [Example 251, N-[3-(ethylcarbamoyl)phenyl]-3-methyl-5-(quinoxalin-2-ylamino)-1,2-thiazole-4-carboxamide]
8 | ≥ 20 µM | ≥ 20 µM | Cc1nsc(Nc2cnc(C(F)(F)F)cn2)c1C(=O)Nc1ccc(F)c(OC2CCN(CC(F)(F)F)C2)c1 (stereo not shown) [Example 315, N-(4-fluoro-3-{[1-(2,2,2-trifluoroethyl)pyrrolidin-3-yl]oxy}phenyl)-3-methyl-5-{[5-(trifluoromethyl)pyrazin-2-yl]amino}-1,2-thiazole-4-carboxamide]
9 | > 20 µM | > 20 µM | Cc1nsc(Nc2cnc(C(F)(F)F)cn2)c1C(=O)Nc1cccc(NC(=O)OC(C)(C)C)c1 [Example 284, 3-tert-butyl (3-{[(3-methyl-5-{[5-(trifluoromethyl)pyrazin-2-yl]amino}-1,2-thiazol-4-yl)carbonyl]amino}phenyl)carbamate]
10 | > 20 µM | 3.2 µM | Cc1nsc(Nc2cc(C#N)ccn2)c1C(=O)Nc1cccc(C(=O)NC(C)C)c1 [Example 254, 5-[(4-cyanopyridin-2-yl)amino]-N-[3-(isopropylcarbamoyl)phenyl]-3-methyl-1,2-thiazole-4-carboxamide]
11 | ≥ 20 µM | ≥ 20 µM | Cc1nsc(Nc2cc(C#N)ccn2)c1C(=O)Nc1ccc(OC2CCNCC2)nc1 [Example 24, 5-[(4-Cyanopyridin-2-yl)amino]-3-methyl-N-[6-(piperidin-4-yloxy)pyridin-3-yl]-1,2-thiazole-4-carboxamide]
12 | > 20 µM | > 20 µM | Cc1nsc(Nc2cncc(C(F)(F)F)n2)c1C(=O)Nc1ccc(C(=O)N2CCN(CC(F)(F)F)CC2)cc1 [Example 272, 3-methyl-N-(4-{[4-(2,2,2-trifluoroethyl)piperazin-1-yl]carbonyl}phenyl)-5-{[6-(trifluoromethyl)pyrazin-2-yl]amino}-1,2-thiazole-4-carboxamide]
13 | > 20 µM | > 20 µM | Cc1nsc(Nc2cnc3ccccc3n2)c1C(=O)Nc1cccc(NS(=O)(=O)C2CN(CCC(F)(F)F)C2)c1 [Example 288, 3-methyl-5-(quinoxalin-2-ylamino)-N-[3-({[1-(3,3,3-trifluoropropyl)azetidin-3-yl]sulfonyl}amino)phenyl]-1,2-thiazole-4-carboxamide]
14 | 8.4 µM | > 20 µM | CCN1CCN(C(=O)c2ccc(NC(=O)c3c(C)nsc3Nc3cncc(C(F)(F)F)n3)cc2)CC1 [Example 275, N-{4-[(4-ethylpiperazin-1-yl)carbonyl]phenyl}-3-methyl-5-{[6-(trifluoromethyl)pyrazin-2-yl]amino}-1,2-thiazole-4-carboxamide]
15 | > 20 µM | > 20 µM | Cc1nsc(Nc2cncc(C(F)(F)F)n2)c1C(=O)Nc1ccc(OC2CCN(CCC(F)(F)F)CC2)nc1 [Example 304, 3-methyl-5-{[6-(trifluoromethyl)pyrazin-2-yl]amino}-N-(6-{[1-(3,3,3-trifluoropropyl)piperidin-4-yl]oxy}pyridin-3-yl)-1,2-thiazole-4-carboxamide]
16 | > 20 µM | > 20 µM | Cc1nsc(Nc2cnc3ccccc3n2)c1C(=O)Nc1cccc(NS(=O)(=O)C2CCN(CC(F)(F)F)CC2)c1 [Example 281, 3-methyl-5-(quinoxalin-2-ylamino)-N-[3-({[1-(2,2,2-trifluoroethyl)piperidin-4-yl]sulfonyl}amino)phenyl]-1,2-thiazole-4-carboxamide]
17 | ≥ 20 µM | ≥ 20 µM | Cc1nsc(Nc2cnc(C(F)(F)F)cn2)c1C(=O)Nc1ccc(F)c(OCC2CCN(CC(F)F)CC2)c1 [Example 308, N-(3-{[1-(2,2-difluoroethyl)piperidin-4-yl]methoxy}-4-fluorophenyl)-3-methyl-5-{[5-(trifluoromethyl)pyrazin-2-yl]amino}-1,2-thiazole-4-carboxamide]
18 | > 20 µM | > 20 µM | Cc1nsc(Nc2cncc(C(F)(F)F)n2)c1C(=O)Nc1ccc(F)c(OC2CCN(CC(F)(F)F)CC2)c1 [Example 267, N-(4-fluoro-3-{[1-(2,2,2-trifluoroethyl)piperidin-4-yl]oxy}phenyl)-3-methyl-5-{[6-(trifluoromethyl)pyrazin-2-yl]amino}-1,2-thiazole-4-carboxamide]
19 | > 20 µM | > 20 µM | Cc1nsc(Nc2cnc(C(F)(F)F)cn2)c1C(=O)Nc1ccc(N(C)C)c(OCCCN(C)CCC(F)(F)F)c1 [Example 300, N-[4-(dimethylamino)-3-{3-[methyl(3,3,3-trifluoropropyl)amino]propoxy}phenyl]-3-methyl-5-{[5-(trifluoromethyl)pyrazin-2-yl]amino}-1,2-thiazole-4-carboxamide]
20 | > 20 µM | > 20 µM | Cc1nsc(Nc2cnc3ccccc3n2)c1C(=O)Nc1cccc(NS(=O)(=O)C2CN(CCF)C2)c1 [Example 287, N-[3-({[1-(2-fluoroethyl)azetidin-3-yl]sulfonyl}amino)phenyl]-3-methyl-5-(quinoxalin-2-ylamino)-1,2-thiazole-4-carboxamide]
21 | > 20 µM | > 20 µM | Cc1nsc(Nc2cnc3ccccc3n2)c1C(=O)Nc1ccc(N2CCN(C(=O)OC(C)(C)C)CC2)nc1 [Example 248, tert-butyl 4-[5-({[3-methyl-5-(quinoxalin-2-ylamino)-1,2-thiazol-4-yl]carbonyl}amino)pyridin-2-yl]piperazine-1-carboxylate]
22 | > 20 µM | > 20 µM | COC(=O)CCCc1ccc(NC(=O)c2c(C)nsc2Nc2cc(C#N)ccn2)cc1 [Example 256, methyl 4-{4-[({5-[(4-cyanopyridin-2-yl)amino]-3-methyl-1,2-thiazol-4-yl}carbonyl)amino]phenyl}butanoate]
23 | > 20 µM | > 20 µM | Cc1nsc(Nc2cnc(C(F)(F)F)cn2)c1C(=O)Nc1ccc(F)c(OCC2CCN(CCC(F)(F)F)CC2)c1 [Example 311, N-(4-fluoro-3-{[1-(3,3,3-trifluoropropyl)piperidin-4-yl]methoxy}phenyl)-3-methyl-5-{[5-(trifluoromethyl)pyrazin-2-yl]amino}-1,2-thiazole-4-carboxamide]
24 | > 20 µM | > 20 µM | Cc1nsc(Nc2cnc3ccccc3n2)c1C(=O)Nc1cccc(NS(=O)(=O)C2CCN(CC(F)F)CC2)c1 [Example 282, N-[3-({[1-(2,2-difluoroethyl)piperidin-4-yl]sulfonyl}amino)phenyl]-3-methyl-5-(quinoxalin-2-ylamino)-1,2-thiazole-4-carboxamide]
25 | > 20 µM | > 20 µM | Cc1nsc(Nc2cncc(C(F)(F)F)n2)c1C(=O)Nc1ccc(OCCCO)nc1 [Example 278, N-[6-(3-hydroxypropoxy)pyridin-3-yl]-3-methyl-5-{[6-(trifluoromethyl)pyrazin-2-yl]amino}-1,2-thiazole-4-carboxamide]
26 | > 20 µM | > 20 µM | Cc1nsc(Nc2cnc(C(F)(F)F)cn2)c1C(=O)Nc1ccc(C(=O)NC2CCN(CC(F)F)CC2)cc1 [Example 259, N-(4-{[1-(2,2-difluoroethyl)piperidin-4-yl]carbamoyl}phenyl)-3-methyl-5-{[5-(trifluoromethyl)pyrazin-2-yl]amino}-1,2-thiazole-4-carboxamide]
